System: fall panicum
Test: Test C postemergence fall panicum
Assay type: in vivo, Panicum dichotomiflorum
Conditions: 0 to 100 scale, 0 no effect, 100 complete control
Summary of the method: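 Compounds in a non-phytotoxic solvent with surfactant were sprayed postemergence on greenhouse-grown plants in 60:40 sandy loam/potting mix. After about 14 to 21 days, visual ratings against untreated controls on a 0 (no effect) to 100 (complete control) scale.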

CC(C)N(C(=O)n1oc(=O)n(C(C)C)c1=O)c1ccccc1 [Compound 113]
Plant response rating Fall panicum (Rate 140 g/ha): 60
Plant response rating Fall panicum (Rate 280 g/ha): 80
Plant response rating Fall panicum (Rate 560 g/ha): 85
Plant response rating Fall panicum (Rate 1120 g/ha): 85

Source: patent US6737383B1, “Herbicidal oxadiazolidines” (priority 1999, dated 2004)
